Assay results taken from patent US20240108607A1, “METHOD FOR MANUFACTURING NOVEL NITROGEN-CONTAINING COMPOUND OR SALT THEREOF AND MANUFACTURING INTERMEDIATE OF NOVEL NITROGEN-CONTAINING COMPOUND OR SALT THEREOF” (FUJIFILM Corporation, priority 2015, published 2024).
Where two headings read alike, the source gives them in different places.

What was measured:
U87MG cells [1] = assay: Radioactivity concentration of labeled compounds in tumor, U87MG subcutaneous transplantation; format: in vivo, mice (Balb/c AJcl-nu/nu); details: caudal vein, 111In 740 kBq, 64Cu and 90Y 500 kBq
Procedure: Test Example 3 Evaluation based on radioactivity concentration of ^111In-labeled compound, ^64Cu-labeled compound, and ^90Y-labeled compound in tumor
After 2 to 3 weeks, at a point in time when the tumor volume became 200 to 500 mm^3, 3 mice were sorted into one group at each point in time. The ^111In-labeled compound (740 k Bq) was administered into the caudal vein, the animals were sacrificed after a certain period of time, and the tumor was extracted. The weight of the tumor was measured, the radioactivity was measured using a gamma counter, and the radioactivity concentration in tumor (% ID/g) was calculated. For the ^64Cu-labeled compound (500 k Bq) and the ^90Y-labeled compound (500 k Bq), the radioactivity concentration in tumor (% ID/g) was calculated by the same method.

[2] = Radiochemical purity after standing at room temperature (reversed-phase TLC); format: physicochemical
Procedure: A indium [^111In] chloride solution (80 MBq, 100 μL) was added to a mixture of the compound A (8.5 μg) and a 0.2 mol/L sodium acetate buffer solution (pH 4.0) (1.5 mL). The solution was heated to 100° C. for 15 minutes and then left to stand for 5 minutes at room temperature, thereby obtaining [^111In]-(compound A). […] The radiochemical purity measured immediately after the compound was prepared and measured after 24 hours at room temperature was equal to or higher than 95%.
A yttrium [^90Y] chloride solution (700 MBq, 240 μL) was added to a mixture of the compound (79 μg), gentisic acid (1.8 mg), a 0.6 mol/L sodium acetate buffer solution (pH 4.0, 120 μL), and 0.4 mol/L aqueous sodium hydroxide solution (24 μL). The solution was heated to 100° C. for 20 minutes and then left to stand for 5 minutes at room temperature, thereby obtaining [90^Y]-(compound A). […] The radiochemical purity measured immediately after the compound was prepared and measured after 24 hours at room temperature was equal to or higher than 95%.
A copper [^64Cu] chloride solution (pH 5, 35 MBq, 55 μL) was added to a mixture of the compound A (5.8 μg) and 0.2 mol/L sodium acetate buffer solution (pH 4.0, 219 μL). The solution was heated to 100° C. for 15 minutes and left to stand for 5 minute at room temperature, thereby obtaining [^64Cu]-(compound A). […] The radiochemical purity measured immediately after the compound was prepared and measured after 22 hours at room temperature was equal to or higher than 90%.
A 0.2 mol/L sodium acetate buffer solution of Copper [^64Cu] chloride (pH 4.0) (40 MBq, 155 μL) was added to a mixture of the compound B (4.2 μg), gentisic acid (1 mg), and a 0.2 mol/L sodium acetate buffer solution (pH 4.0) (5.0 μL). The solution was heated to 100° C. for 15 minutes and left to stand for 5 minutes at room temperature, thereby obtaining [^64Cu]-(compound B). […] The radiochemical purity measured immediately after the compound was prepared and measured after 24 hours at room temperature was equal to or higher than 90%.
(§1) A gallium [^67Ga] chloride solution (200 MBq, 63 μL) was added to a mixed solution of the compound A (21 μg), gentisic acid (1.0 mg), a 0.2 mol/L sodium acetate buffer solution (pH 4.0, 730.7 μL), and 4.5 mol/L aqueous sodium hydroxide solution (6.3 μL). The solution was heated to 100° C. for 15 minutes and then left to stand for 5 minutes at room temperature, thereby obtaining [^67Ga]-(compound A).
A lutetium [^177Lu] chloride solution (666 MBq, 333 μL) dissolved in a 0.2 mol/L sodium acetate buffer solution (pH 4.0) was added to a mixed solution of the compound A (70.0 μg), gentisic acid (1.8 mg), and a 0.2 mol/L sodium acetate buffer solution (pH 4.0, 83.3 μL). The solution was heated to 100° C. for 15 minutes and then left to stand for 5 minutes at room temperature, thereby obtaining [^177Lu]-(compound A).
as §1, with “(40” for “(200”, “11.7” for “63”, “B (4.1” for “A (21”, “4.5, 147.13” for “4.0, 730.7”, “(1.17” for “(6.3”, “B).” for “A).”

[3] = Absorbed dose in a human being simulated with OLINDA/EXM 1.0 from monkey organ distribution
Procedure: (§2) Blood was collected from a crab-eating macaque over time, and by using [^111In]-(compound A), from the radioactivity concentration in the blood, kinetic parameters of the compound in blood were calculated by OLINDA/EXM 1.0. Furthermore, by using [^111In]-(compound A), from the organ distribution obtained by imaging, the absorbed dose of each organ obtained in a case where the compound is administered to a human being was calculated using OLINDA/EXM 1.0. [^111In]-(compound A) (98 MBq/9.3 μg) was administered to a crab-eating macaque (Hamri Co., Ltd., males, 3-year-old, 3.4 kg) under anesthesia. After the administration, blood was collected over time, and imaging was performed using a gamma camera. The blood was collected 10, 30, and 60 minutes after the administration and 2, 4, 5, 6, 24, 48, 72, and 144 hours after the administration. Regarding the imaging, after 1, 2, 4, 6, 24, 48, 72, and 144 hours, planar imaging was performed using a gamma camera (Symbia, Siemens Healthcare GmbH). Regarding the anesthesia, the animal was anesthetized with ketamine at 20 mg/kg before the administration of [^111In]-(compound A) and kept anesthetized until the end of imaging, which was continued for 6 hours after the administration, by inhalation anesthesia (isofluran 2 to 3%, 5 to 8 L/min). After 24 hours, ketamine (20 mg/kg) and xylazine (2 mg/kg) were administered to perform blood collection and imaging.
(§3) Furthermore, by using exposure dose analysis software OLINDA/EXM 1.0, the absorbed dose in a human being was simulated using each of the labeled compounds, and the results are shown below.

[4] = Monkey blood kinetics and planar imaging; format: in vivo, crab-eating macaque
Procedure: Test Example 9 Imaging of Monkey by Using [^111In]-(Compound A)
as §2
The kinetic parameters in blood are also shown below.
as §3

[5] = system: T98G cell (human glioblastoma); assay: Therapeutic test on T98G subcutaneous transplantation model; format: in vivo, mice (Balb/c Slc-nu/nu); details: 1 time; for Number of animals showing regression: 6 animals; for Inhibition rate: 13 days after administration; for Tumor volume 13 days after administration / Tumor volume At the beginning of administration: Mean ± SD
Procedure: Test Example 8 Therapeutic Test on T98G Subcutaneous Transplantation Model Using [^90Y]-(Compound A)
After 77 days, at a point in time when the tumor volume reached 300 to 1,200 mm^3, the mice were grouped. […] The evaluation values were calculated by the same method as in Test Example 7, and the antitumor activity was evaluated.

U87MG cells [6] = details: 1 time; for Number of animals showing regression: 8 animals; for Inhibition rate: 16 days after administration; for Tumor volume 16 days after administration / Tumor volume At the beginning of administration: Mean ± SD
Procedure: Test Example 7 Therapeutic Test on U87MG Subcutaneous Transplantation Model Using [^90Y]-(Compound A)
1×10^7 U87MG cells were transplanted into the subcutaneous space of the right flank of Balb/c Slc-nu/nu (males, 6-week-old, Japan SLC. Inc). After 2 weeks, the mice with a tumor having a volume of 100 to 500 mm^3 were grouped. A phosphate buffered saline (PBS) or [^90Y]-(compound A) was administered into the caudal vein, and the tumor volume was measured. At a point in time when the tumor volume of the mice of the PBS group exceeded 2,000 mm^3 which is a humane endpoint, the antitumor activity was evaluated.

## Cc1cc(OCCCC(=O)NCCNC(=O)[C@H](CS(=O)(=O)O)NC(=O)CC[C@H](C(=O)O)N2CCN(CC(=O)[O-])CCN(CC(=O)[O-])CC2)cc(C)c1S(=O)(=O)N[C@@H](CNC(=O)CCCCc1ccc2c(n1)NCCC2)C(=O)O.[64Cu+2] [[^64Cu]-(compound B)]
U87MG cells [1]
  Radioactivity concentration in tumor After 4 hours: 11.19 % ID/g
  Radioactivity concentration in tumor After 24 hours: 8.53 % ID/g
[2]
  radiochemical purity immediately after preparation and after 24 hours at room temperature: ≥ 90%

## Cc1cc(OCCCC(=O)NCCNC(=O)C(CS(=O)(=O)O)NC(=O)CN2CCN(CC(=O)[O-])CCN(CC(=O)[O-])CCN(CC(=O)[O-])CC2)cc(C)c1S(=O)(=O)NC(CNC(=O)CCCCc1ccc2c(n1)NCCC2)C(=O)O.[111In+3] (stereo not shown) [[^111In]-(compound A)]
[3]
  Absorbed dose Brain: 0.25 mGy/MBq
  Absorbed dose Kidney: 1.19 mGy/MBq
  Absorbed dose Liver: 0.19 mGy/MBq
  Absorbed dose Lung: 0.12 mGy/MBq
  Absorbed dose Red marrow: 0.05 mGy/MBq
  Absorbed dose Small intestine: 0.05 mGy/MBq
  Absorbed dose Whole body: 0.05 mGy/MBq
U87MG cells [1]
  Radioactivity concentration in tumor After 4 hours: 11.10 % ID/g
  Radioactivity concentration in tumor After 24 hours: 9.62 % ID/g
[2]
  radiochemical purity immediately after preparation and after 24 hours at room temperature: ≥ 95%
[4]; blood, 98 MBq/9.3 μg
  AUC: 0.22 % ID · h/mL
  CL: 2.17 mL/min/kg
  Cmax: 0.018 % ID/mL
  T½α: 0.46 h
  T½β: 19.3 h
  Vss: 3.52 L/kg
[4]; up to 6 hours after the administration
  integration into the bladder and the gall bladder (planar imaging): increased over time

## Cc1cc(OCCCC(=O)NCCNC(=O)[C@H](CS(=O)(=O)O)NC(=O)CN2CCN(CC(=O)[O-])CCN(CC(=O)[O-])CCN(CC(=O)[O-])CC2)cc(C)c1S(=O)(=O)N[C@@H](CNC(=O)CCCCc1ccc2c(n1)NCCC2)C(=O)O.[177Lu+3] [[^177Lu]-(compound A)]
[2]; 3 hours
  radiochemical purity immediately after preparation and after 3 hours at room temperature: ≥ 95%

## Cc1cc(OCCCC(=O)NCCNC(=O)C(CS(=O)(=O)O)NC(=O)CN2CCN(CC(=O)[O-])CCN(CC(=O)[O-])CCN(CC(=O)[O-])CC2)cc(C)c1S(=O)(=O)NC(CNC(=O)CCCCc1ccc2c(n1)NCCC2)C(=O)O.[90Y+3] (stereo not shown) [[^90Y]-(compound A)]
[5]; 22.2 MBq
  Number of animals showing regression: 1
  Inhibition rate: 82%
  Tumor volume 13 days after administration: 882 ± 399 mm^3
  Tumor volume At the beginning of administration: 755 ± 293 mm^3
[5]; 29.6 MBq
  Number of animals showing regression: 3
  Inhibition rate: 97%
  Tumor volume 13 days after administration: 755 ± 313 mm^3
  Tumor volume At the beginning of administration: 736 ± 264 mm^3
[3]
  Absorbed dose Brain: 1.96 mGy/MBq
  Absorbed dose Kidney: 14.7 mGy/MBq
  Absorbed dose Liver: 1.12 mGy/MBq
  Absorbed dose Lung: 1.35 mGy/MBq
  Absorbed dose Red marrow: 0.06 mGy/MBq
  Absorbed dose Small intestine: 0.87 mGy/MBq
  Absorbed dose Whole body: 0.27 mGy/MBq
U87MG cells [1]
  Radioactivity concentration in tumor After 4 hours: 12.52 % ID/g
  Radioactivity concentration in tumor After 24 hours: 15.29 % ID/g
[2]
  radiochemical purity immediately after preparation and after 24 hours at room temperature: ≥ 95%
U87MG cells [6]; 14.8 MBq
  Number of animals showing regression: 2
  Inhibition rate: 95%
  Tumor volume 16 days after administration: 429 ± 188 mm^3
  Tumor volume At the beginning of administration: 351 ± 72 mm^3
U87MG cells [6]; 22.2 MBq
  Number of animals showing regression: 2
  Inhibition rate: 97%
  Tumor volume 16 days after administration: 386 ± 142 mm^3
  Tumor volume At the beginning of administration: 343 ± 88 mm^3

## Cc1cc(OCCCC(=O)NCCNC(=O)[C@H](CS(=O)(=O)O)NC(=O)CN2CCN(CC(=O)[O-])CCN(CC(=O)[O-])CCN(CC(=O)[O-])CC2)cc(C)c1S(=O)(=O)N[C@@H](CNC(=O)CCCCc1ccc2c(n1)NCCC2)C(=O)O.[67Ga+3] [[^67Ga]-(compound A)]
[2]; 3.5 hours
  radiochemical purity immediately after preparation and after 3.5 hours at room temperature: ≥ 95%

## Cc1cc(OCCCC(=O)NCCNC(=O)[C@H](CS(=O)(=O)O)NC(=O)CC[C@H](C(=O)[O-])N2CCN(CC(=O)[O-])CCN(CC(=O)[O-])CC2)cc(C)c1S(=O)(=O)N[C@@H](CNC(=O)CCCCc1ccc2c(n1)NCCC2)C(=O)O.[67Ga+3] [[^67Ga]-(compound B)]
[2]; 5.5 hours
  radiochemical purity immediately after preparation and after 5.5 hours at room temperature: ≥ 95%
